Experimental data reported in patent US10131679B2, “Substituted dihydropyrrolopyrazole compound” (UBE INDUSTRIES, LTD., priority 2014, dated 2018).
pIC50, pKi: −log10 of the molar value. Structures can show the parent of a compound that is named as a salt.

Legend:
CDK2 = molecular target: T1, CDK2 (Homo sapiens, UniProt P24941); assay: CDK2 enzyme inhibition test; type: biochemical; conditions: Ki=IC50/(1+S/Km); 33P bound to MBP, [γ-33P]ATP, 30° C. for 20 minutes; read-out: Ki value of CDK2 inhibitory activity
T1 construct: purchased Invitrogen Corp. PV3267
Protocol: CDK2 Enzyme Inhibition Test
The preparation of a buffer solution was performed by mixing a HEPES buffer solution (pH 7.4), DTT, Triton X-100, and MgCl2. A 500 μM [γ-^33P]ATP solution was used by diluting a 10 mM ATP solution and a commercially available [γ-^33P]ATP solution (manufactured by PerkinElmer, Inc., Code No. NEG-302H) with the buffer solution. A CDK2 solution was used by diluting commercially available CDK2 (manufactured by Invitrogen Corp., Catalog No. PV3267) with the buffer solution. A substrate solution was used by diluting MBP with the buffer solution. As for the preparation of a reaction solution, the buffer solution, the 500 μM [γ-^33P]ATP solution, the CDK2 solution, and the substrate solution were mixed at 4° C. to obtain a reaction solution.
(§1) CDK2 enzyme reaction was performed by adding 5 μL of a test compound solution prepared with 10% DMSO/90% injectable distilled water, and 45 μL of the reaction solution in a 1.5 mL microtube at 4° C. and reacting in the microtube at 30° C. for 20 minutes in a water bath incubator. After the reaction, a 10% aqueous TCA solution was added to each microtube while cooled to 4° C., and mixed to terminate the reaction. The resultant was left standing at 4° C. for 10 minutes and then centrifuged in a centrifuge, and the supernatant was discarded. Next, a 2% aqueous TCA solution was added, mixed thereto, and then centrifuged in a centrifuge, and the supernatant was discarded. This washing operation was performed twice. After the washing, precipitates were dissolved in a 1 N aqueous NaOH solution, and the radioactivity was measured with a liquid scintillation counter.
The calculation of the inhibitory activity of the test compound against CDK2 was performed as a test compound concentration inhibiting 50% of the amount of ^33P bound to MBP (IC50 value) by using EXSUS (version 8.0.0 or version 8.0.1, manufactured by CAC Exicare Corp.).
(§2) The calculation of a Ki value was performed according to the following calculation expression. S means the concentration of ATP contained in the reaction solution, and Km means a Michaelis-Menten constant. Ki=IC50/(1+S/Km)

PAK4 = molecular target: T2, PAK4 (Homo sapiens, UniProt O96013); assay: PAK4 enzyme inhibition test; type: biochemical; conditions: Ki=IC50/(1+S/Km); 33P bound to MBP, [γ-33P]ATP, 30° C. for 20 minutes; read-out: Ki value of PAK4 inhibitory activity
T2 construct: purchased Invitrogen Corp. PV4212
T2 sequence (O96013 whole entry): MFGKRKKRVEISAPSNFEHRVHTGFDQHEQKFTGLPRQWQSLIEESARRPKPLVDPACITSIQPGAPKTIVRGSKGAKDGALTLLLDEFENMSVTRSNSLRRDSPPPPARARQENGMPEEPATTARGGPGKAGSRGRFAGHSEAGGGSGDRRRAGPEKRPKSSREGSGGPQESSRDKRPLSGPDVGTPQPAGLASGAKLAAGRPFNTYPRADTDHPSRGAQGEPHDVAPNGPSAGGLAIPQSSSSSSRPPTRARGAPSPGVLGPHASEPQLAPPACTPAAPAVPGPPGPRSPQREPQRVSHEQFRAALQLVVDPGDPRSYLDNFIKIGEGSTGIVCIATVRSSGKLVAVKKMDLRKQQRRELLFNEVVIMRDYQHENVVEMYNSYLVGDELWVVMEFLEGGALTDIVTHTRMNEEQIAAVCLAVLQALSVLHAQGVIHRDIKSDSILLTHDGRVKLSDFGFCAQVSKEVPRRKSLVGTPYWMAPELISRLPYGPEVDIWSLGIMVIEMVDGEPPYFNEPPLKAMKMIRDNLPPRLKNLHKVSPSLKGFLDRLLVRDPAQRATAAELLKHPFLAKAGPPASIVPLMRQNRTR
Protocol: PAK4 Enzyme Inhibition Test
The preparation of a buffer solution was performed by mixing a trishydroxyaminomethane buffer solution (Tris buffer solution) (pH 7.5), DTT, Triton X-100, MgCl2, ethylene glycol bis(β-aminoethyl ether)-N,N,N′,N′-tetraacetic acid (EGTA), (3-glycerol phosphate, and sodium orthovanadate(V). A 40 μM [γ-^33P]ATP solution was used by diluting a 10 mM ATP solution and a commercially available [γ-^33P]ATP solution (manufactured by PerkinElmer, Inc., Code No. NEG-302H) with the buffer solution. A PAK4 solution was used by diluting commercially available PAK4 (manufactured by Invitrogen Corp., Catalog No. PV4212) with the buffer solution. A substrate solution was used by diluting MBP with the buffer solution. As for the preparation of a reaction solution, the buffer solution, the 40 μM [γ-^33P]ATP solution, the PAK4 solution, and the substrate solution were mixed at 4° C. to obtain a reaction solution.
as §1, with “PAK4” for “CDK2”, “mixed,” for “mixed thereto,”
The calculation of the inhibitory activity of the test compound against PAK4 was performed as a test compound concentration inhibiting 50% of the amount of ^33P bound to MBP (IC50 value) by using EXSUS (version 8.0.0 or version 8.0.1, manufactured by CAC Exicare Corp.).
as §2

CDK7 = molecular target: T3, CDK7 (Homo sapiens, UniProt P50613); assay: CDK7 enzyme inhibition test; type: biochemical; conditions: Ki=IC50/(1+S/Km); 33P bound to MBP, [γ-33P]ATP, 30° C. for 20 minutes; read-out: Ki value of CDK7 inhibitory activity
T3 construct: purchased Carna Biosciences, Inc. 04-108
T3 sequence (P50613 whole entry): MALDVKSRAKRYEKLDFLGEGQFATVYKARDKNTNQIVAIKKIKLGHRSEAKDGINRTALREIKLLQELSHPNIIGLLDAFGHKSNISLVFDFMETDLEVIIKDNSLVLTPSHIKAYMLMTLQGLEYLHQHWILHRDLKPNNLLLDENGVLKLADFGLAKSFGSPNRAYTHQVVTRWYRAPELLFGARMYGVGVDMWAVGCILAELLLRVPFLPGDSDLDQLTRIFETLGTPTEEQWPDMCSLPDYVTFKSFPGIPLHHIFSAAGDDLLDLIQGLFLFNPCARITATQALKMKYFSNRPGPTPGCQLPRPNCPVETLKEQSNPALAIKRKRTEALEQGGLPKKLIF
T3 sequence (P51946 whole entry partner): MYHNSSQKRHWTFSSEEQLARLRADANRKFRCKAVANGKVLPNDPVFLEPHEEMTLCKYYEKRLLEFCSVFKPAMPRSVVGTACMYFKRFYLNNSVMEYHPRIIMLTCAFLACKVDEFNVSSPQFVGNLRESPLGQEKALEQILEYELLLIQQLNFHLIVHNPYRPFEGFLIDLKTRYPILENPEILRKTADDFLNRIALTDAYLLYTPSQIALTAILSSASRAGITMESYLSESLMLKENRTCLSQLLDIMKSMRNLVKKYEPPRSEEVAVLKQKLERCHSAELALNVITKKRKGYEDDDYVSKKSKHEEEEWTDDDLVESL
T3 sequence (P51948 whole entry partner): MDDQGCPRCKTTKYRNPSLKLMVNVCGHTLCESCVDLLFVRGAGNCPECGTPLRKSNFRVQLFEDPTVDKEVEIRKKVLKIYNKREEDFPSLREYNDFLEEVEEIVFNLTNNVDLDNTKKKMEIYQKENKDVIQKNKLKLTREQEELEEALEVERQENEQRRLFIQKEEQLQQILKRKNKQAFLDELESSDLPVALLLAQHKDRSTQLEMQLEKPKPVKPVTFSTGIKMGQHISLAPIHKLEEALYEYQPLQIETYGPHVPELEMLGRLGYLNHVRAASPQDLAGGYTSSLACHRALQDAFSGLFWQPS
Protocol: CDK7 Enzyme Inhibition Test
The preparation of a buffer solution was performed by mixing a N-2-hydroxyethylpiperazine-N′-2-ethanesulfonic acid buffer solution (HEPES buffer solution) (pH 7.4), dithiothreitol (DTT), Triton X-100, and magnesium chloride (MgCl2). A 500 μM [γ-^33P]ATP solution was used by diluting a 10 mM ATP solution and a commercially available [γ-^33P]ATP solution (manufactured by PerkinElmer, Inc., Code No. NEG-302H) with the buffer solution. A CDK7 solution was used by diluting commercially available CDK7 (manufactured by Carna Biosciences, Inc., Catalog No. 04-108) with the buffer solution. A substrate solution was used by diluting myelin basic protein (MBP) with the buffer solution. As for the preparation of a reaction solution, the buffer solution, the 500 μM [γ-^33P]ATP solution, the CDK7 solution, and the substrate solution were mixed at 4° C. to obtain a reaction solution.
CDK7 enzyme reaction was performed by adding 5 μL of a test compound solution prepared with 10% dimethyl sulfoxide (DMSO)/90% injectable distilled water, and 45 μL of the reaction solution to a 1.5 mL microtube at 4° C. and reacting in the microtube at 30° C. for 20 minutes in a water bath incubator. After the reaction, a 10% aqueous trichloroacetic acid (TCA) solution was added to each microtube while cooled to 4° C., and mixed to terminate the reaction. The resultant was left standing at 4° C. for 10 minutes and then centrifuged in a centrifuge, and the supernatant was discarded. Next, a 2% aqueous TCA solution was added, mixed, and then centrifuged in a centrifuge, and the supernatant was discarded. This washing operation was performed twice. After the washing, precipitates were dissolved in a 1 N aqueous sodium hydroxide (NaOH) solution, and the energy quantity (radioactivity) of the reaction product was measured with a liquid scintillation counter.
The calculation of the inhibitory activity of the test compound against CDK7 was performed as a test compound concentration inhibiting 50% of the amount of ^33P bound to MBP (IC50 value) by using EXSUS (version 8.0.0 or version 8.0.1, manufactured by CAC Exicare Corp.).
as §2

[1] = system: human large intestine cancer cell line (HCT-116); assay: Human large intestine cancer (HCT-116) cell growth inhibition test; type: cell-based; conditions: 72 h, HCT-116, culture for 3 days, sulforhodamine B absorbance
Protocol: Human Large Intestine Cancer (HCT-116) Cell Growth Inhibition Test
The measurement of a human large intestine cancer cell growth inhibitory effect was carried out by modifying the method of Simak et al. (Cancer Research, 69, 6208 (2009)).
A human large intestine cancer cell line (HCT-116) (manufactured by DS Pharma Biomedical Co., Ltd., Cat. No. EC91091005) was cultured in McCoy's 5a (manufactured by GIBCO/Thermo Fisher Scientific, Inc., REF. 16600-082) medium containing 10% FBS (manufactured by GIBCO/Thermo Fisher Scientific, Inc., REF. 10082-147) and 1% penicillin/streptomycin/amphotericin B (manufactured by GIBCO/Thermo Fisher Scientific, Inc., REF. 15240-096) and inoculated at 1.0×10^3 cells/well in a 96-well plate (manufactured by Corning Inc., REF. 353072). After overnight culture in a carbon dioxide incubator, it was replaced with a fresh McCoy's 5a medium containing 10% FBS on the next day, and a test compound dissolved in DMSO (manufactured by Wako Pure Chemical Industries, Ltd., Code No. 043-07216) (final DMSO concentration: 0.1%) was added and left standing in a carbon dioxide incubator. After culturing for 3 days, the absorbance of each well was measured by using In Vitro Toxicology Assay Kit Sulforhodamine B based (manufactured by Sigma-Aldrich Co. LLC., Pcode 1001910706).
The rate of inhibition of cell growth at each concentration was calculated from the test compound concentration and the absorbance of sulforhodamine B, and the concentration of the test compound necessary for inhibiting 50% of cell growth (IC50 value) was calculated by using EXSUS (version 8.0.0 or version 8.0.1, manufactured by CAC Exicare Corp.).

CC1(C)c2[nH]nc(NC(=O)C3([Si](C)(C)C)CCC3)c2CN1C(=O)N[C@@H](CO)c1ccccc1 [IV-115, (R)—N-(2-Hydroxy-1-phenylethyl)-6,6-dimethyl-3-[1-(trimethylsilyl)cyclobutanecarboxamido]-4,6-dihydropyrrolo[3,4-c]pyrazole-5(1H)-carboxamide]
pKi (CDK2): ≤ 6.00 | pKi (PAK4): ≤ 6.30

CC(C)(O)C[C@@H](NC(=O)N1Cc2c(NC(=O)C3([Si](C)(C)C)CC3)n[nH]c2C1(C)C)c1ccccc1 [III-298, (R)—N-(3-Hydroxy-3-methyl-1-phenylbutyl)-6,6-dimethyl-3-[1-(trimethylsilyl)cyclopropanecarboxamido]-4,6-dihydropyrrolo[3,4-c]pyrazole-5(1H)-carboxamide]
pKi (CDK7): ≥ 7.30 | pKi (CDK2): ≤ 6.00 | pKi (PAK4): ≤ 6.30 | pIC50 [1]: ≥ 6.30

CC(C)C(NC(=O)N1Cc2c(NC(=O)C3([Si](C)(C)C)CCC3)n[nH]c2C1(C)C)C(C)(C)CO (centres unmarked) [IV-822, N-(1-Hydroxy-2,2,4-trimethylpentan-3-yl)-6,6-dimethyl-3-[1-(trimethylsilyl)cyclobutanecarboxamido]-4,6-dihydropyrrolo[3,4-c]pyrazole-5(1H)-carboxamide]
pKi (CDK7): ≥ 7.30 | pKi (CDK2): ≤ 6.00 | pKi (PAK4): ≤ 6.30 | pIC50 [1]: ≥ 6.30

CC[Si](C)(C)C(C)(C)C(=O)Nc1n[nH]c2c1CN(C(=O)N[C@H](CO)c1ccccc1)C2(C)C [II-116, (S)-3-[2-(Ethyldimethylsilyl)-2-methylpropanamido]-N-(2-hydroxy-1-phenylethyl)-6,6-dimethyl-4,6-dihydropyrrolo[3,4-c]pyrazole-5(1H)-carboxamide]
pKi (CDK7): ≥ 7.30 | pKi (CDK2): ≤ 6.00 | pKi (PAK4): ≤ 6.30 | pIC50 [1]: ≥ 6.30

CC1(C)c2[nH]nc(NC(=O)C3([Si](C)(C)C)CCC3)c2CN1C(=O)NC(CO)c1ccccn1 (centres unmarked) [IV-534, N-[2-Hydroxy-1-(pyridin-2-yl)ethyl]-6,6-dimethyl-3-[1-(trimethylsilyl)cyclobutanecarboxamido]-4,6-dihydropyrrolo[3,4-c]pyrazole-5(1H)-carboxamide]
pKi (CDK7): ≥ 7.30 | pKi (CDK2): ≤ 6.00 | pKi (PAK4): ≤ 6.30 | pIC50 [1]: ≥ 6.30

CC(C)(O)C[C@@H](NC(=O)N1Cc2c(NC(=O)C3([Si](C)(C)C)CCC3)n[nH]c2C1(C)C)c1ccccc1F [IV-883, (R)—N-[1-(2-Fluorophenyl)-3-hydroxy-3-methylbutyl]-6,6-dimethyl-3-[1-(trimethylsilyl)cyclobutanecarboxamido]-4,6-dihydropyrrolo[3,4-c]pyrazole-5(1H)-carboxamide]
pKi (CDK2): ≤ 6.00 | pKi (PAK4): ≤ 6.30 | pIC50 [1]: ≥ 6.30

CC(O)CNC(=O)N1Cc2c(NC(=O)C3([Si](C)(C)C)CCC3)n[nH]c2C1(C)C (centres unmarked) [IV-442, N-(2-Hydroxypropyl)-6,6-dimethyl-3-[1-(trimethylsilyl)cyclobutanecarboxamido]-4,6-dihydropyrrolo[3,4-c]pyrazole-5(1H)-carboxamide]
pKi (CDK7): ≥ 7.30 | pKi (CDK2): ≤ 6.00 | pKi (PAK4): ≤ 6.30 | pIC50 [1]: ≥ 6.30

CC(C)(CO)C(NC(=O)N1Cc2c(NC(=O)C3([Si](C)(C)C)CC3)n[nH]c2C1(C)C)c1ccccc1 (centres unmarked) [III-353, N-(3-Hydroxy-2,2-dimethyl-1-phenylpropyl)-6,6-dimethyl-3-[1-(trimethylsilyl)cyclopropanecarboxamido]-4,6-dihydropyrrolo[3,4-c]pyrazole-5(1H)-carboxamide]
pKi (CDK7): ≥ 7.30 | pKi (CDK2): ≤ 6.00 | pKi (PAK4): ≤ 6.30 | pIC50 [1]: ≥ 6.30

CC1(C)c2[nH]nc(NC(=O)C3([Si](C)(C)C)CCC3)c2CN1C(=O)N[C@H](C(=O)O)c1ccccc1 [IV-403 (sodium salt), Sodium (S)-2-{6,6-dimethyl-3-[1-(trimethylsilyl)cyclobutanecarboxamido]-1,4,5,6-tetrahydropyrrolo[3,4-c]pyrazole-5-carboxamido}-2-phenylacetate]
pKi (CDK7): ≥ 7.30 | pKi (CDK2): ≤ 6.00 | pKi (PAK4): ≤ 6.30
